Test results: patent US20220259167A1 (UNIVERSITY HEALTH NETWORK, priority 2019, published 2022)
Several values for one entry are separate records, joined by “and”; a condition that tells them apart may be missing. Equal entries are not always repeated. Where two headings read alike, the source gives them in different places.

Assays:
Aβ 1-40 = Aβ 1-40 (Homo sapiens, UniProt P05067); test: Aβ ThT aggregation (fibrillization) assay; type: biochemical
SIM-A9 cells = test: Anti-inflammation assay: TNF-α production from LPS stimulated SIM-A9 cells (ELISA); type: cell-based
[1] = molecular target: biotinylated amyloid-beta(1-42) (bioAbeta42) (Homo sapiens, UniProt P05067); type: biochemical
SH-SY5Y = test: Neurotoxicity (Ntox) assay: SH-SY5Y viability after supernatant from activated differentiated THP-1 cells; type: cell-based, human; conditions: 25 μM compound on THP-1; SH-SY5Y viability 72 h post-addition of supernatant
Description: This study used differentiated (using phorbol myristate acetate, PMA) human acute monocytic leukemia cells, THP-1, cultured in RPMI 1640 medium supplemented with additives. Earlier studies with THP-1 cell line indicate that upon LPS/IFNγ activation, these cells release neurotoxic factors [Cheung Y T, et al. Neurotoxicology. 2009; 30(1):127-35]. These are remarkably plastic cells, which can potentially polarize to multiple cell lineages on the application of specific stimuli. On treatment with PMA, the suspension (floating cells) mature to a highly adherent phenotype with increased phagocytic ability (macrophage/microglia like). Typically, after PMA differentiation THP-1 monocytes, display increased cell surface expression of CD11b and CD14. PMA differentiated macrophage/microglia with a combination of LPS/IFNγ/amyloid beta peptide were used to activate the cells; and small synthetic molecules were tested. The cell-free supernatant generated from microglia were then transferred to previously mature neuronal cells lines.
Seed (0.5×10^6) THP-1 cells in each well of a 12-well tissue culture plate in warm complete growth medium up to 500 μl to 1 ml per well. […]

[2] = tested on: differentiated THP-1 cells; test: Anti-inflammatory cytokine levels (M2 indicators) during neurotoxicity assay; type: cell-based, human; conditions: FIG. 6
[3] = read-out: Inhibition of Aβ fibrillization at concentration 100 μM, Inhibition %, compound at 100 μM, Example 5, versus DMSO control
[4] = SIM-A9, read-out: TNF-α Inhibition
[5] = Example 5, ND = inhibition activity not detected over 200 μM, read-out: Inhibition of Aβ oligomerization, μM IC50
[6] = compound at 100 μM, Example 5, versus DMSO control
[7] = Example 2, read-out: Anti-Aβ oligomerization IC50
[8] = compound at 100 μM, Example 5, versus DMSO control, read-out: Inhibition of Aβ fibrillization at concentration 100 μM, Inhibition %
[9] = compound 2.7 μM, LPS stimulated SIM-A9 cells, read-out: TNF-α Inhibition
[10] = compound at 100 μM, Example 3, read-out: % inhibition of Aβ fibrillization (at 100 μ M)
[11] = read-out: % inhibition of Aβ fibrillization (at 100 μ M), compound at 100 μM, Example 3

Chain of biotinylated amyloid-beta(1-42) (bioAbeta42) (P05067 672-713): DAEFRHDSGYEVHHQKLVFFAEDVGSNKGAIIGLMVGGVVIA
Chain of Aβ 1-40 (P05067 672-711): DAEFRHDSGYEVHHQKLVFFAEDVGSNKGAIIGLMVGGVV

Compound	IC50 [1, 5] [µM]	inhibition at 100 µM (Aβ 1-40; [8]) [%]	inhibition at 100 µM (Aβ 1-40; [3]) [%]	inhibition at 2.7 µM (SIM-A9 cells; [4]) [%]	also measured
OC(c1ccc(Cl)cc1NCc1ccco1)C(F)(F)F (stereo not drawn) [WW013, 1-(4-Chloro-2-((furan-2-ylmethyl)amino)phenyl)-2,2,2-trifluoroethan-1-ol]	> 200	–	60.7	33	–
COc1ccc(C(O)C(F)(F)F)c(NCc2cscn2)c1 (stereo not drawn) [WW005]	130 ± 28.4	–	6.49	27	–
O=C(O)c1cc(S(=O)(=O)N2CCOCC2)c(Cl)cc1NCc1ccco1 [WW049, 4-Chloro-2((furan-2-ylmethyl)amino)-5-(morpholinosulfony)benzoic Acid]	41.2 ± 12.8	–	–	–	Inhibition of Aβ fibrillization at concentration 100 μM, Inhibition % (Aβ 1-40; [6]): Pro- fibrilliza- tion; IC50 [1, 7]: 38.5 µM
O=C(O)c1ccc(Cl)cc1NCc1ccco1 [WW001, 4-Chloro-2-((furan-2-ylmethyl)amino) Benzoic Acid]	> 200	20.2	–	–	–
O=C(O)c1ccccc1NCc1ccccc1 [2-(benzylamino)benzoic acid]	–	–	–	–	Rescue of neuronal cells under Aβ-induced neurotoxicity / neuroinflammation (SH-SY5Y): able to rescue neuronal cells under Aβ-induced neurotoxicity
OC(c1ccc(F)cc1NCc1ccco1)C(F)(F)F (stereo not drawn) [WW011, 2,2,2-Trifluoro-1-(4-fluoro-2-((furan-2-ylmethyl)amino)phenyl) ethan-1-ol]	153 ± 48	–	5.14	25.9	–
O=C(O)c1cc(S(=O)(=O)N2CCCCC2)c(Cl)cc1NCc1ccco1 [WW096, 4-Chloro-2-((furan-2-ylmethyl)amino)-5-(piperidin-1-ylsulfonyl) Benzoic Acid]	> 200	19.1	–	–	inhibition at 2.7 µM (SIM-A9 cells; [9]): 11%
COc1ccc(C(O)C(F)(F)F)c(NCc2ccco2)c1 (stereo not drawn) [WW003, 2,2,2-trifluoro-1-(2-((furan-2-ylmethyl)amino)-4-methoxyphenyl) ethan-1-ol]	> 200	–	36.8	28	–
O=C(O)c1cc(S(=O)(=O)NCc2ccc(C(O)C(F)(F)F)cc2)c(Cl)cc1NCc1ccco1 (stereo not drawn) [WW036, 4-Chloro-2-((furan-2-ylmethyl)amino)-5-(N-(4-(2,2,2-trifluoro-1-hydroxyethyl)benzyl)sulfamoyl)benzoic Acid]	68.5 ± 18.7	–	–	–	Inhibition of Aβ fibrillization at concentration 100 μM, Inhibition % (Aβ 1-40; [6]): Pro- fibrilliza- tion
OC(c1ccc(Cl)cc1NCc1cscn1)C(F)(F)F (stereo not drawn) [WW021, 1-(4-Chloro-2-((thiazol-4-ylmethyl)amino)phenyl)2,2,2-trifluoroethan-1-ol]	> 200	–	27.9	38	–
OC(c1ccc(Br)cc1NCc1ccco1)C(F)(F)F (stereo not drawn) [WW016, 1-(4-Bromo-2-((furan-2-ylmethyl)amino)phenyl)-2,2,2-trifluoroethan-1-ol]	> 200	–	81	34.8	inhibition at 100 µM (Aβ 1-40; [11]): 81.3%
O=C(O)c1cc(S(=O)(=O)Nc2ccccc2)c(Cl)cc1NCc1ccco1 [SI-W080, 4-Chloro-2-((furan-2-ylmethyl)amino)-5-(N-phenylsulfamoyl) benzoic acid]	168 ± 29	17.4	–	–	–
OC(c1ccc(Br)cc1NCc1cscn1)C(F)(F)F (stereo not drawn) [WW017, 1-(4-Bromo-2-((thiazol-4-ylmethyl)amino)phenyl)-2,2,2-trofluoroethan-1-ol]	> 200	–	33	31	inhibition at 100 µM (Aβ 1-40; [11]): 33%
CCCCCCNS(=O)(=O)c1cc(C(=O)O)c(NCc2ccco2)cc1Cl [WW064, 4-Chloro-2-((furan-2-ylmethyl)amino)-5-(N-hexylsulfamoyl) Benzoic Acid]	47.8 ± 14.3	39.2	–	–	inhibition at 100 µM (Aβ 1-40; [10]): 39.2%; IC50 [1, 7]: 46.1 µM

Continued, in another order:

IC50 [1, 5] [µM]	inhibition at 100 µM (Aβ 1-40; [8]) [%]	Compound	inhibition at 100 µM (Aβ 1-40; [3]) [%]	inhibition at 2.7 µM (SIM-A9 cells; [4]) [%]	also measured
113 ± 22.8	–	CN(C)S(=O)(=O)c1cc(C(=O)O)c(NCc2ccco2)cc1Cl [WW062, 4-Chloro-5-(N, N-dimethylsulfamoyl)-2-((furan-2-ylmethyl)amino) Benzoic Acid]	–	–	Inhibition of Aβ fibrillization at concentration 100 μM, Inhibition % (Aβ 1-40; [6]): Pro- fibrilliza- tion
–	25.2	CNS(=O)(=O)c1cc(C(=O)N(C)C)c(NCc2ccco2)cc1Cl [WW103, 4-Chloro-2-((furan-2-ylmethyl)amino)-N, N-dimethyl-5-(N-methylsulfamoyl) Benzamide]	–	–	inhibition at 100 µM (Aβ 1-40; [10]): 25.2%; IC50 ([1]; Example 5, ND = inhibition activity not detected over 200 μM, listed as SII-W103, read-out: Inhibition of Aβ oligomerization, μM IC50): 6.5 µM and 6.56 µM
82.4 ± 28.5	–	CNS(=O)(=O)c1cc(C(N)=O)c(NCc2ccco2)cc1Cl [WW101, 4-Chloro-2-((furan-2-ylmethyl)amino)-5-(N-methylsulfamoyl)benzamide]	–	–	Inhibition of Aβ fibrillization at concentration 100 μM, Inhibition % (Aβ 1-40; [6]): Pro- fibrillization; inhibition at 2.7 µM (SIM-A9 cells; [9]): 27%
53 ± 3.37	–	CNS(=O)(=O)c1cc(C(=O)O)c(NCc2ccco2)cc1Cl [WW032, 4-chloro-2-((furan-2-ylmethyl)amino)-5-(N-methylsulfamoyl) Benzoic Acid]	–	–	Inhibition of Aβ fibrillization at concentration 100 μM, Inhibition % (Aβ 1-40; [6]): Pro- fibrilliza- tion; IC50 [1, 7]: 55.1 µM
56 ± 26.6	27.1	CNS(=O)(=O)c1cc(C(=O)OC)c(NCc2ccco2)cc1Cl [WW100]	–	–	inhibition at 2.7 µM (SIM-A9 cells; [9]): 31%
103 ± 22.1	–	CNC(=O)c1cc(S(=O)(=O)NC)c(Cl)cc1NCc1ccco1 [WW102, 4-Chloro-2-((furan-2-ylmethyl)amino)-N-methyl-5-(N-methylsulfamoyl)benzamide]	–	–	Inhibition of Aβ fibrillization at concentration 100 μM, Inhibition % (Aβ 1-40; [6]): Pro- fibrillization; inhibition at 2.7 µM (SIM-A9 cells; [9]): 25%
> 200	8.56	NS(=O)(=O)c1cc(C(=O)O)c(NCc2ccco2)cc1Cl [Furosemide, 4-Chloro-2-((furan-2-ylmethyl)amino)-5-sulfamoylbenzoic Acid, reference compound]	–	–	Concentrations of anti-inflammatory cytokines (IL-4, IL-10, IL-1RA, Arginase; M2 indicators) [2]: increases the concentrations of anti-inflammatory cytokines
